Reference: patent US8298781B2, “Compositions and methods for characterizing and regulating olfactory sensation” (Duke University, priority 2007, dated 2012)

Molecular target: T1, OR7D4 WM (Homo sapiens, UniProt Q8NG98, R88W/T133M)
T1 construct: expressed in transfected cells; host or cells: Hana3A (HEK293T-derived)
T1 sequence (Q8NG98 1-312 R88W/T133M): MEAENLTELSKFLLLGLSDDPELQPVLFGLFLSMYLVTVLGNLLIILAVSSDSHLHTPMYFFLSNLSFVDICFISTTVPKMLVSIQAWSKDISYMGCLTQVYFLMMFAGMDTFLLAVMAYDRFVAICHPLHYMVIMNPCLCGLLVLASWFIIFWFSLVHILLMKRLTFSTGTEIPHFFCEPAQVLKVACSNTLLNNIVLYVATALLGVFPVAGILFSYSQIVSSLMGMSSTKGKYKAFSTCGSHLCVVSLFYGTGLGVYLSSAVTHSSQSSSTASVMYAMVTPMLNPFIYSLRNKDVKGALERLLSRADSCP
Experiment: Luciferase assay of odorant receptor activation in Hana3A cells, OR7D4 WM
Assay type: cell-based
Settings: variant R88W/T133M, relative to OR7D4 RT
Source text: Heterologous expression of human odorant receptors. 423 human odorant receptors including 337 predicted functional receptors were cloned. Odorant receptors that contained the first 20 amino acid of human rhodopsin (see, e.g., Krautwurst, D., et al., Cell 95, 917-926 (1998); herein incorporated by reference in its entirety) in pCl (Promega) were expressed in the Hana3A cell line along with a short form of mRTP1, RTP1S, (M37 to the C-terminal end), which enhanced functional expression of the odorant receptors. For immunocytochemistry, cells were fixed, permeabilized and incubated with monoclonal anti-rhodopsin antibody, 4D2 (see, e.g., Laird, D. W., et al., Invest Opthalmol Vis Sci 29.419428 (1988); herein incorporated by reference in its entirety), followed by Cy3-conjugated donkey anti-mouse IgG (Jackson Immunologicals). […]
Luciferase assay and data analysis. […] Luminescence was measured using Wallac Victor 1420 (Perkin-Elmer). Normalized luciferase activity was calculated by the formula [luc(N)-luc(lowest)]/luc(highest)/RL (N) where luc(N)=luminescence of luciferase of a certain well; luc(lowest)=lowest luminescence of luciferase of a plate or a set of plates; luc(highest)=highest luminescence of luciferase of a plate or a set of plates; RL(N)=luminescence of Renilla luciferase of a certain well. Data was analyzed with Microsoft Excel and GraphPad Prism 4.

SMILES | function of OR7D4 WM in vitro in the presence of the odor
C[C@@]12C=CC[C@H]1[C@@H]1CCC3=CC(=O)CC[C@]3(C)[C@H]1CC2 [androstadienone, androsta-4,16-dien-3-one] | severely impaired olfactory function
C[C@]12CCC(=O)C[C@@H]1CC[C@@H]1[C@@H]2CC[C@]2(C)C=CC[C@@H]12 [androstenone, 5α-androst-16-en-3-one] | severely impaired olfactory function
